Reference: US12599136B2, “Substituted isophthalic acid diamides and their use as herbicides” (Bayer Aktiengesellschaft, priority 2020, dated 2026)

Experiments:
Assay type in all cases: in vivo
[1] = system: Amaranthus retroflexus; experiment: Post-emergence herbicidal action against AMARE; conditions: visual assessment about 3 weeks after treatment
In short: (§1)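 Herbicidal effect was scored visually in percent after about 3 weeks in the greenhouse. Plants had been raised in sandy loam and treated post-emergence at the one-leaf stage with formulated compound at 600 to 800 l/ha water plus 0.2% wetting agent.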

[2] = system: Abutilon theophrasti; experiment: Post-emergence herbicidal action against ABUTH
In short: as §1

[3] = system: Viola tricolor; experiment: Post-emergence herbicidal action against VIOTR; conditions: 20 g/ha
In short: as §1

[4] = system: Digitaria sanguinalis; experiment: Post-emergence herbicidal action against DIGSA
Description: Seeds of monocotyledonous and dicotyledonous weed and crop plants are laid out in sandy loam soil in wood-fiber pots, covered with soil and cultivated in a greenhouse under good growth conditions. 2 to 3 weeks after sowing, the test plants are treated at the one-leaf stage. The compounds of the invention, formulated in the form of wettable powders (WP) or as emulsion concentrates (EC), are then sprayed onto the green parts of the plants in the form of an aqueous suspension or emulsion at a water application rate equivalent to 600 to 800 l/ha, with addition of 0.2% wetting agent. After the test plants have been left to stand in the greenhouse under optimal growth conditions for about 3 weeks, the action of the preparations is assessed visually in comparison to untreated controls (herbicidal action in percent (%): 100% activity=the plants have died, 0% activity=like control plants). […] The tables below illustrate, in an illustrative manner, the post-emergence herbicidal action of the compounds of the invention, the herbicidal activity being stated in percent.

[5] = system: Echinochloa crus-galli; experiment: Pre-emergence herbicidal action against ECHCG; conditions: 80 g/ha; visual score after 3 weeks vs untreated controls
In short: (§2)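 Herbicidal effect was assessed 3 weeks after treatment by visual comparison with untreated controls, 100% denoting dead plants. Aqueous WP or EC preparations had been applied at 600 to 800 l/ha with 0.2% wetting agent to the soil covering freshly sown seeds.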

[6] = system: Digitaria sanguinalis; experiment: Pre-emergence herbicidal action against DIGSA
In short: as §2

[7] = system: Avena fatua; experiment: Pre-emergence herbicidal action against AVEFA; conditions: 80 g/ha; visual score after 3 weeks vs untreated controls
In short: as §2

[8] = system: Viola tricolor; experiment: Pre-emergence herbicidal action against VIOTR
In short: as §2

[9] = system: Setaria viridis; experiment: Pre-emergence herbicidal action against SETVI; conditions: 80 g/ha
In short: as §2

[10] = system: Amaranthus retroflexus; experiment: Pre-emergence herbicidal action against AMARE; conditions: visual score after 3 weeks vs untreated controls
In short: as §2

[11] = system: Setaria viridis; experiment: Post-emergence herbicidal action against SETVI; conditions: visual assessment about 3 weeks after treatment
In short: as §1

[12] = system: Veronica persica; experiment: Post-emergence herbicidal action against VERPE; conditions: 20 g/ha, visual assessment about 3 weeks after treatment
In short: as §1

[13] = system: Matricaria inodora; experiment: Pre-emergence herbicidal action against MATIN; conditions: visual score after 3 weeks vs untreated controls
In short: as §2

[14] = system: Alopecurus myosuroides; experiment: Pre-emergence herbicidal action against ALOMY; conditions: 80 g/ha; visual score after 3 weeks vs untreated controls
In short: as §2

[15] = system: Echinochloa crus-galli; experiment: Post-emergence herbicidal action against ECHCG; conditions: 20 g/ha, visual assessment about 3 weeks after treatment
In short: as §1

[16] = system: Abutilon theophrasti; experiment: Pre-emergence herbicidal action against ABUTH; conditions: visual score after 3 weeks vs untreated controls
In short: as §2

[17] = system: Avena fatua; experiment: Post-emergence herbicidal action against AVEFA; conditions: 20 g/ha, visual assessment about 3 weeks after treatment
In short: as §1

[18] = system: Alopecurus myosuroides; experiment: Post-emergence herbicidal action against ALOMY
In short: as §1

[19] = system: Matricaria inodora; experiment: Post-emergence herbicidal action against MATIN; conditions: visual assessment about 3 weeks after treatment
In short: as §1

[20] = system: Veronica persica; experiment: Pre-emergence herbicidal action against VERPE; conditions: 80 g/ha
In short: as §2

[21] = system: Lolium rigidum; experiment: Pre-emergence herbicidal action against LOLRI; conditions: 80 g/ha
Description: Seeds of monocotyledonous and dicotyledonous weed plants and crop plants are laid out in sandy loam soil in wood-fiber pots and covered with soil. The compounds of the invention, formulated in the form of wettable powders (WP) or as emulsion concentrates (EC), are then applied to the surface of the covering soil in the form of an aqueous suspension or emulsion at a water application rate equivalent to 600 to 800 l/ha, with addition of 0.2% wetting agent. After the treatment, the pots are placed in a greenhouse and kept under good growth conditions for the trial plants. The damage to the test plants is scored visually after a test period of 3 weeks by comparison with untreated controls (herbicidal activity in percent (%): 100% activity=the plants have died, 0% activity=like control plants). […] The tables below illustrate, in an illustrative manner, the post-emergence herbicidal action of the compounds of the invention, the herbicidal activity being stated in percent.

[22] = system: Pharbitis purpurea; experiment: Post-emergence herbicidal action against PHBPU; conditions: visual assessment about 3 weeks after treatment
In short: as §1

[23] = system: Polygonum convolvulus; experiment: Pre-emergence herbicidal action against POLCO; conditions: 80 g/ha
In short: as §2

| Structure (SMILES) | Post-emergence action against AMARE in % ([1]; 20 g/ha) [%] | Post-emergence action against ABUTH ([2]; 5 g/ha) [%] | Post-emergence action against ABUTH ([2]; 20 g/ha) [%] | Post-emergence action against VIOTR in % [3] [%] | Post-emergence action against DIGSA in % ([4]; 5 g/ha) [%] | Post-emergence action against DIGSA in % ([4]; 20 g/ha) [%] | Pre-emergence action against ECHCG [5] [%] | Pre-emergence action against AVEFA [7] [%] | Pre-emergence action against VIOTR ([8]; 80 g/ha) [%] | Pre-emergence action against SETVI [9] [%] | Pre-emergence action against AMARE ([10]; 20 g/ha) [%] | Pre-emergence action against AMARE ([10]; 80 g/ha) [%] | Post-emergence action against SETVI in % ([11]; 5 g/ha) [%] | Post-emergence action against SETVI in % ([11]; 20 g/ha) [%] | Pre-emergence action against MATIN ([13]; 80 g/ha) [%] | Pre-emergence action against ALOMY [14] [%] | Pre-emergence action against ABUTH ([16]; 20 g/ha) [%] | Pre-emergence action against ABUTH ([16]; 80 g/ha) [%] | Post-emergence action against AMARE in % ([1]; 5 g/ha) [%] | Post-emergence action against ALOMY ([18]; 20 g/ha) [%] | other results |
| --- | --- | --- | --- | --- | --- | --- | --- | --- | --- | --- | --- | --- | --- | --- | --- | --- | --- | --- | --- | --- | --- |
| Cc1c(C(=O)Nc2nnnn2C)ccc(C(F)(F)F)c1C(=O)N(C)C [Example 1-19] | 100 | 90 | 100 | 80 | 90 | 90 | 90 | 80 | 100 | 100 | 100 | 100 | 100 | 100 | 90 | 80 | 90 | 100 |  |  | Pre-emergence action against DIGSA ([6]; 80 g/ha): 100%; Post-emergence action against VERPE in % [12]: 80%; Post-emergence action against ECHCG in % [15]: 90% |
| CN(C(=O)c1c(C(F)(F)F)ccc(C(=O)Nc2nnnn2C)c1Cl)C1CC1 [Example 1-125] | 90 |  |  | 80 |  | 100 | 90 | 80 | 100 | 100 | 100 | 100 |  | 80 | 100 | 100 | 100 | 100 | 80 | 90 | Post-emergence action against AVEFA in % [17]: 80%; Post-emergence action against ALOMY ([18]; 5 g/ha): 80%; Pre-emergence action against DIGSA ([6]; 20 g/ha): 100%; Pre-emergence action against DIGSA ([6]; 80 g/ha): 100%; Post-emergence action against MATIN in % ([19]; 20 g/ha): 80%; Pre-emergence action against VIOTR ([8]; 20 g/ha): 100%; Post-emergence action against VERPE in % [12]: 90% |
| CCN(C)C(=O)c1c(C(F)F)ccc(C(=O)Nc2nnnn2C)c1Cl [Example 1-155] | 100 | 90 | 90 | 80 | 80 | 80 | 100 | 90 | 100 | 100 | 100 | 100 | 80 | 90 | 100 | 90 | 100 | 100 | 100 | 90 | Post-emergence action against AVEFA in % [17]: 80%; Pre-emergence action against VERPE [20]: 90%; Post-emergence action against ALOMY ([18]; 5 g/ha): 80%; Post-emergence action against MATIN in % ([19]; 20 g/ha): 90%; Post-emergence action against VERPE in % [12]: 80%; Pre-emergence action against MATIN ([13]; 20 g/ha): 90%; Post-emergence action against ECHCG in % [15]: 90%; Pre-emergence action against LOLRI [21]: 80%; Post-emergence action against PHBPU in % ([22]; 5 g/ha): 80%; Post-emergence action against PHBPU in % ([22]; 20 g/ha): 80% |
| CCN(C)C(=O)c1c(C(F)F)ccc(C(=O)Nc2nnnn2CC)c1Cl [Example 2-155] | 100 | 80 | 90 | 80 | 80 | 80 | 100 | 90 | 100 | 100 | 100 | 100 | 80 | 100 | 100 | 90 | 100 | 100 | 100 | 90 | Pre-emergence action against VERPE [20]: 90%; Post-emergence action against MATIN in % ([19]; 5 g/ha): 80%; Post-emergence action against MATIN in % ([19]; 20 g/ha): 90%; Pre-emergence action against MATIN ([13]; 20 g/ha): 80%; Pre-emergence action against LOLRI [21]: 90%; Post-emergence action against PHBPU in % ([22]; 5 g/ha): 80%; Post-emergence action against PHBPU in % ([22]; 20 g/ha): 80% |
| CCN(CC)C(=O)c1c(C(F)F)ccc(C(=O)Nc2nnnn2CC)c1Cl [Example 2-166] | 100 | 80 | 90 | 80 | 80 | 90 | 90 | 80 | 100 | 100 | 100 | 100 | 90 | 90 | 100 | 90 | 100 | 100 | 100 | 90 | Post-emergence action against AVEFA in % [17]: 80%; Pre-emergence action against VERPE [20]: 100%; Post-emergence action against MATIN in % ([19]; 5 g/ha): 80%; Post-emergence action against MATIN in % ([19]; 20 g/ha): 80%; Pre-emergence action against POLCO [23]: 80%; Pre-emergence action against MATIN ([13]; 20 g/ha): 80%; Post-emergence action against ECHCG in % [15]: 80%; Post-emergence action against PHBPU in % ([22]; 5 g/ha): 80%; Post-emergence action against PHBPU in % ([22]; 20 g/ha): 90% |
